Data published in patent publication US6767991B1, “Hepatitis C inhibitor peptides” (priority 1997, dated 2004).
Like-named read-outs stand apart in the source and are kept apart here. *1 amine or outer side, *2 acyl side, *3 side chain or, on linkers, in order; H or OH if unused. Where a SMILES comes first, the peptide text is derived from it. Where no end group is shown, it is not given here. [ ]: non-standard residue; d: D form. The star is where a group is joined. Acca(2-Et,1R,2R) = CC[C@@H]1C[C@]1(N)C(=O)O; CH2(1-naphthyl) = c1ccc2c(C*)cccc2c1; Glutaryl = O=C(CCCC(=O)[*:2])[*:1]; Hyp = O=C(O)[C@@H]1C[C@@H](O)CN1; Chg = N[C@H](C(=O)O)C1CCCCC1; Suc = O=C(CCC(=O)[*:2])[*:1]; Tle = CC(C)(C)[C@H](N)C(=O)O; X5 = CC(C)(C)c1ccc(C*)cc1; Nva = CCC[C@H](N)C(=O)O; Ac3c = NC1(C(=O)O)CC1; Boc = CC(C)(C)OC(=O)*; OBn = c1ccc(CO*)cc1; X2 = Brc1cccc(C*)c1; X6 = Ic1cccc(C*)c1; Bn = c1ccc(C*)cc1

Biological target: T1, HCV NS3 protease type 1b/NS4A cofactor peptide (Hepatitis C virus genotype 1b, UniProt P26663)
T1 construct: recombinant HCV NS3 protease (amino acid 1027 to 1206) was cloned in the pET11d bacterial expression vector; made in house; host or cells: E. coli BL21(DE3)pLysS
T1 sequence (P26663 1027-1206, other chains not shown): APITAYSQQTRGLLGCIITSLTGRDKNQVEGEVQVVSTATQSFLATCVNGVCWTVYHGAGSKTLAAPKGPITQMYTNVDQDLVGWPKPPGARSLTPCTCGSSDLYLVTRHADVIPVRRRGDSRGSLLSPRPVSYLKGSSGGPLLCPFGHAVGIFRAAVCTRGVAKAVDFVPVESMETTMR
Assay: Recombinant HCV NS3 protease/NS4A cofactor peptide radiometric assay
Assay type: biochemical, HCV genotype 1b
Settings: read-out: IC50
Method: Recombinant HCV NS3 Protease/NS4A Cofactor Peptide Radiometric Assay.
The enzyme was stored at −80° C., thawed on ice and diluted just prior to use in the assay buffer containing the NS4A cofactor peptide.
The substrate used for the NS3 protease/NS4A cofactor peptide radiometric assay, DDIVPC-SMSYTW [SEQ. ID NO. 2], is cleaved between the cysteine and the serine residues by the enzyme. The sequence DDIVPC-SMSYTW [SEQ. ID NO. 2] corresponds to the NS5A/NS5B natural cleavage site in which the cysteine residue in P2 has been substituted for a proline. The peptide substrate DDIVPC-SMSYTW [SEQ. ID NO. […] ID NO. […] [SEQ. ID NO. 5] (molar ratio enzyme: cofactor 1:100) in the absence or presence of inhibitors. The separation of substrate from products is performed by adding avidin-coated agarose beads to the assay mixture followed by filtration. […] ID NO. 4] product found in the filtrate allows for the calculation of the percentage of substrate conversion and of the percentage of inhibition.
Tris and Tris-HCl (UltraPure) were obtained from Gibco-BRL. Glycerol (UltraPure), MES and BSA were purchased from Sigma. TCEP was obtained from Pierce, DMSO from Aldrich and NaOH from Anachemia.
Assay buffer: 50 mM Tris HCl, pH 7.5, 30% (w/v) glycerol, 1 mg/mL BSA, 1 mM TCEP (TCEP added just prior to use from a 1 M stock solution in water).
Substrate: […] [SEQ. ID NO.
ID NO. 3] (˜1 nM final concentration).
The assay was performed in a 96-well polypropylene plate from Costar. Each well contained:
20 μL substrate/tracer in assay buffer;
10 μL±inhibitor in 20% DMSO/assay buffer;
10 μL NS3 protease 1b/NS4 cofactor peptide (molar ratio 1:100).
Blank (no inhibitor and no enzyme) and control (no inhibitor) were also prepared on the same assay plate.
The enzymatic reaction was initiated by the addition of the enzyme/NS4A peptide solution and the assay mixture was incubated for 40 min at 23° C. under gentle agitation. Ten (10) μL of 0.5N NaOH were added and 10 μL 1 M MES, pH 5.8 were added to quench the enzymatic reaction.
Twenty (20) μL of avidin-coated agarose beads (purchased from Pierce) were added in a Millipore MADP N65 filtration plate. The quenched assay mixture was transferred to the filtration plate, and incubated for 60 min at 23° C. under gentle agitation.
The plates were filtered using a Millipore MultiScreen Vacuum Manifold Filtration apparatus, and 40 μL of the filtrate was transferred in an opaque 96-well plate containing 60 μL of scintillation fluid per well.
The % inhibition was calculated with the following equation:
100-[(countsinh-countsblank)/(countsctl-countsblank)×100]

[1] = Table 1, unmarked values: NS3 protease/NS4A cofactor peptide radiometric assay
[2] = Table 2, unmarked values: NS3 protease/NS4A cofactor peptide radiometric assay

Molecule | IC50 [1] [µM] | IC50 [2] [µM] | also measured
CC[C@H](C)[C@H](NC(=O)[C@H](CC(=O)O)NC(=O)CCC(=O)O)C(=O)N[C@H](C(=O)N1CCC[C@H]1C(=O)N[C@@H](CS)C(=O)O)C(C)C [compound 103] (Suc-DIVPC-OH) | 26 | – | –
CC[C@H]1C[C@@]1(NC(=O)[C@@H]1C[C@@H](OCc2cccc3ccccc23)CN1C(=O)[C@@H](NC(=O)[C@@H](NC(C)=O)C1CCCCC1)C(C)C)C(=O)O [compound 514] | – | – | IC50 (text b180, values of Table 5, 1R,2R versus 1S,2S isomer at P1): 27.5 µM
CC(=O)N[C@H](C(=O)N[C@H](C(=O)N1C[C@H](OCc2cccc(Br)c2)C[C@H]1C(=O)NC1(C(=O)O)CC1)C(C)C)C1CCCCC1 [compound 268] (Ac-[Chg]V[Hyp](X2)[Ac3c]-OH) | – | 24 | –
CC(=O)N[C@H](C(=O)N[C@H](C(=O)N1C[C@H](Oc2cccc(Br)c2)C[C@H]1C(=O)NC1(C(=O)O)CC1)C(C)C)C1CCCCC1 [compound 240] | – | 42 | –
CCC[C@H](NC(=O)[C@@H]1CCCN1C(=O)[C@@H](NC(=O)[C@@H](NC(=O)[C@H](CC(=O)O)NC(=O)[C@H](CC(=O)O)NC(C)=O)[C@@H](C)CC)C(C)C)C(=O)O (single isomer, unassigned) [compound 273] | – | 17.5 | –
CC(C)[C@H](NC(=O)[C@@H](NC(=O)CCCC(=O)O)C1CCCCC1)C(=O)N1C[C@H](OCc2cccc3ccccc23)C[C@H]1C(=O)NC1(C(=O)O)CC1 [compound 226] (Glutaryl-[Chg]V[Hyp](CH2(1-naphthyl))[Ac3c]-OH) | – | 0.76 | –
Ac-EDIVPC [compound 102] | 59 | – | –
CC(C)(C)OC(=O)N[C@H](C(=O)N[C@H](C(=O)N1C[C@H](OCc2cccc3ccccc23)C[C@H]1C(=O)NC1(C(=O)O)CC1)C1CCCCC1)C1CCCCC1 [compound 235] (Boc-[Chg][Chg][Hyp](CH2(1-naphthyl))[Ac3c]-OH) | – | 12 | –
CC[C@H](C)[C@H](NC(=O)[C@H](CC(=O)O)NC(=O)[C@H](CC(=O)O)NC(C)=O)C(=O)N[C@H](C(=O)N1CCC[C@H]1C(=O)NC1(C(=O)O)CC1)C(C)C [compound 126] (Ac-DDIVP[Ac3c]-OH) | 45 | – | –
CC(=O)N[C@H](C(=O)N[C@H](C(=O)N1C[C@H](OCc2ccccc2)C[C@H]1C(=O)NC1(C(=O)O)CC1)C1CCCCC1)C1CCCCC1 [compound 234] (Ac-[Chg][Chg][Hyp](Bn)[Ac3c]-OH) | – | 41 | –
CC[C@H](C)[C@H](NC(=O)[C@H](CCC(=O)O)NC(=O)[C@H](CC(=O)O)NC(C)=O)C(=O)N[C@H](C(=O)N1C[C@H](OCc2cccc(I)c2)C[C@H]1C(=O)NC1(C(=O)O)CC1)C(C)C [compound 233] (Ac-DEIV[Hyp](X6)[Ac3c]-OH) | – | 0.14 | –
CC[C@@H]1C[C@]1(NC(=O)[C@@H]1C[C@@H](OCc2ccccc2)CN1C(=O)[C@@H](NC(=O)[C@@H](NC(=O)[C@@H](CCC(=O)O)NC(=O)[C@H](CC(=O)O)NC(C)=O)[C@@H](C)CC)C(C)C)C(=O)O [compound 517] (Ac-D[dE]IV[Hyp](Bn)[Acca(2-Et,1R,2R)]-OH) | – | – | IC50 (Table 5, first line of the cell, NS3 protease/NS4A cofactor peptide radiometric assay (Example 38)): 0.075 µM
Ac-DDIVIC [compound 119] | 90 | – | –
CC[C@H](C)[C@H](NC(=O)[C@@H](CCC(=O)O)NC(=O)[C@H](CC(=O)O)NC(C)=O)C(=O)N[C@H](C(=O)N1C[C@H](OCc2ccccc2)C[C@H]1C(=O)N[C@@H](CS)C(=O)O)C(C)C [compound 260] (Ac-D[dE]IV[Hyp](Bn)C-OH) | – | 0.18 | –
Ac-DDIVPC [compound 101] | 46 | – | –
CC(=O)N[C@@H](CC(=O)O)C(=O)N[C@@H](CC(=O)O)C(=O)N[C@H](C(=O)N[C@H](C(=O)N1CCC[C@H]1C(=O)N[C@@H](CS)C(=O)O)C(C)C)C(C)(C)C [compound 111] (Ac-DD[Tle]VPC-OH) | 79 | – | –
CC[C@H](C)[C@H](NC(=O)[C@H](CC(=O)O)NC(=O)[C@H](CC(=O)O)NC(C)=O)C(=O)N[C@H](C(=O)N1C[C@H](OCc2ccccc2)C[C@H]1C(=O)N[C@@H](CS)C(=O)O)C(C)C [compound 121] (Ac-DDIV[Hyp](Bn)C-OH) | 1.7 | – | –
CCC[C@H](NC(=O)[C@@H]1C[C@@H](OCc2ccc(C(C)(C)C)cc2)CN1C(=O)[C@@H](NC(=O)[C@@H](NC(=O)[C@H](CC(=O)O)NC(=O)[C@H](CC(=O)O)NC(C)=O)[C@@H](C)CC)C(C)C)C(=O)O [compound 209] (Ac-DDIV[Hyp](X5)[Nva]-OH) | – | 2.6 | –
CC(=O)N[C@@H](CC(=O)O)C(=O)N[C@@H](CCC(=O)O)C(=O)N[C@H](C(=O)N[C@H](C(=O)N[C@@H](CCC(=O)OCc1ccccc1)C(=O)NC1(C(=O)O)CC1)C(C)C)C1CCCCC1 [compound 133] (Ac-DE[Chg]VE(OBn)[Ac3c]-OH) | 39 | – | –
CCC[C@H](NC(=O)[C@@H]1CCCN1C(=O)[C@@H](NC(=O)[C@@H](NC(=O)[C@@H](CCC(=O)O)NC(=O)[C@H](CC(=O)O)NC(C)=O)[C@@H](C)CC)C(C)C)C(=O)O [compound 128] (Ac-D[dE]IVP[Nva]-OH) | 7.4 | – | –
